# Data from patent US12317913B2, “Dietary butyrate” (SOCIETE DES PRODUITS NESTLE S.A., priority 2019, dated 2025).
# How the values were obtained:
# [1] = test system: Human primary myoblasts; assay: Muscle stem cell commitment (MyoD+ cells); assay type: cell-based; conditions: donors 8 and 4; 96 hours culture; FIG. 3
# Description: Human primary myoblasts from two different donors (donor 8 & donor 4) were seeded in 384 well plates at a density of 1'000 cells per well in skeletal muscle growth medium (SKM-M, AMSbio). For treatment, compounds were directly added to the myoblast cultures 16 hours after initial plating. All cultures were then grown for 96 hours. Cells were stained for Pax7 and MyoD expression using antibodies directed against Pax7 and MyoD and counterstained with Hoechst 33342 to visualize cell nuclei. […] Image acquisition was performed using the ImageXpress (Molecular Devices) platform. Custom module analysis based on Multi-Wavelength Cell Scoring of the MetaXpress software was used for quantification. For each condition, the total number of cells was determined to evaluate compound toxicity, and the number of MyoD+ cells was normalized to the total cell number in order to evaluate the proportion of this population. *, **, ***, **** indicates difference from the control (DMSO 1%), One-way ANOVA, with p<0.05, p<0.01, p<0.001, p<0.0001, respectively. Data are presented as Mean +/− SEM
# [2] = molecular target: T1, porcine pancreatic lipase (PPL) (Sus scrofa, UniProt P00591); assay: In vitro digestion in simulated intestinal fluid (SIF), pH-stat; assay type: in vitro ADME; conditions: SIF alone; emulsion with 200 mg fat; pH 6.8, 37° C.
# T1 construct: by porcine pancreatic lipase (from pancreatin); from tissue; host or cells: pancreatin (pancreatic extract)
# T1 sequence (P00591 1-450): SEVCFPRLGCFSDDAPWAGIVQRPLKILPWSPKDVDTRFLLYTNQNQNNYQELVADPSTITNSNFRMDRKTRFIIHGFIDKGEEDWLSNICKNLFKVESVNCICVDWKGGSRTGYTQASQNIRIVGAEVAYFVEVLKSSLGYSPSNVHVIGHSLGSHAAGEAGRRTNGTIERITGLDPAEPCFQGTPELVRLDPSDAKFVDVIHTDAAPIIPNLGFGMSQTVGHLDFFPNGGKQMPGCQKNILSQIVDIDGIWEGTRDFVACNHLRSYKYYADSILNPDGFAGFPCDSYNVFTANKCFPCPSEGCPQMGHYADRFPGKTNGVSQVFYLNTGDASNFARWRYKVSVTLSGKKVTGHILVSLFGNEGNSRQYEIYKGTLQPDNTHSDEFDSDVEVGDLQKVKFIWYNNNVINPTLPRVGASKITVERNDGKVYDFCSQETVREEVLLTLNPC
# T1 sequence (P02703 23-112 partner): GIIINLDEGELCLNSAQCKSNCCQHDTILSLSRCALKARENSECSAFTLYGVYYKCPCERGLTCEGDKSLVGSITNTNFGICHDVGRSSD
# From the text: (§1) An emulsion was then created using an ultrasonic probe homogeniser.
# [3] = test system: rabbit gastric lipase (RGL) followed by porcine pancreatic lipase (PPL); assay: Sequential in vitro digestion, simulated gastric fluid (SGF) then simulated intestinal fluid (SIF); assay type: in vitro ADME
# From the text: as §1
Initial rate of lipolysis [2] [µmol/min],"Initial lipolysis rate in SIF ([3]; SGF-SIF sequential digestion, measured in SIF compartment) [µmol/min]","Hydrolysis in the stomach (gastric lipolysis), in words ([3]; gastric compartment, inferred from SGF-SIF vs SIF)",Lipolysis by gastric lipase ([3]; indicated by decreased total fatty acid release in SIF after RGL in SGF) [%],Compound,Myogenic commitment (MyoD+ cells normalized to total cell number) [1]
–,–,–,–,CCCC(=O)[O-].[Na+] [sodium butyrate],promotes muscle stem cell differention
223 ± 59,44.1 ± 8.8,extensive hydrolysis in the stomach,−60,CCCC(=O)OCC(COC(=O)CCC)OC(=O)CCC [tributyrin],–
